Patent US11753376B2, “Benzyloxy pyridine derivatives and uses thereof” (AUTOTAC INC., priority 2021, dated 2023)

Test system: intracellular autophagy flux (LC3-II) in HEK293T cell line
Assay: Evaluation of intracellular autophagy activity (autophagy flux) by immunoblotting
Format: cell-based, human
Conditions: HCQ 5 μM, 24 hours
Method: In order to evaluate the autophagy flux activity efficacy by the compounds, the HEK293T cell line, which is a cell line derived from a human embryonic kidney-derived cell, was cultured using a DMEM medium containing 10% FBS and 1% streptomycin/penicillin in an incubator with 5% carbon dioxide. In order to measure the autophagy flux activity according to the treatment of the compounds synthesized in the above examples, each cell was dispensed in a 6-well plate. Additional incubation was carried out for 24 hours so that the cells were completely attached to the surface of the plate. Cells were collected after treatment with the compound (5 μM) alone or with the lysosomal inhibitor, hydroxychloroquine (HCQ) (5 μM) for 24 hours to determine whether the compound increases autophagy flux. […] Based on the measured total protein concentration, a sample buffer was added to each sample and reacted at 100° C. for 5 minutes. […]
FIG. 2 is a result of immunoblotting showing the efficacy of the compound (ATB1110) to activate intracellular autophagy flux. […] As HCQ was treated, the level of LC3-II, a marker of autophagy activity, was increased, and the difference between LC3-II in the untreated state and the treated state was measured. […]

CCN(CCO)CCCC(C)Nc1ccnc2cc(Cl)ccc12 (stereo not shown) [HCQ, hydroxychloroquine]
level of LC3-II, a marker of autophagy activity: increased
